# Measurements: PubChem BioAssay (NCI)
# Several values for one entry are separate records, joined by “and”; a condition that tells them apart may be missing. Identical values can stand only once.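 Briefly, cells in 96-well plates were exposed to five compound concentrations for 48 h, and endpoints were estimated by linear interpolation. Definition used: TGI = concentration required for complete inhibition of growth.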
# Tests used:
# Assay in all cases: NCI tumour cell line growth inhibition, 48 h
# [1] = system: 786-0 renal
# [2] = system: A498 renal
# [3] = system: A549 NSCLC
# [4] = system: ACHN renal
# [5] = system: CAKI-1 renal
# [6] = system: CCRF-CEM leukemia
# [7] = system: COLO 205 colon
# [8] = system: DLD-1 colon
# [9] = system: DMS 114 small cell lung
# [10] = system: DMS 273 small cell lung
# [11] = system: EKVX NSCLC
# [12] = system: HCC-2998 colon
# [13] = system: HCT-116 colon
# [14] = system: HCT-15 colon
# [15] = system: HL-60(TB) leukemia
# [16] = system: HOP-18 NSCLC
# [17] = system: HOP-62 NSCLC
# [18] = system: HOP-92 NSCLC
# [19] = system: HT29 colon
# [20] = system: IGROV1 ovarian
# [21] = system: K-562 leukemia
# [22] = system: KM12 colon
# [23] = system: KM20L2 colon
# [24] = system: LOX IMVI melanoma
# [25] = system: LXFL 529 NSCLC
# [26] = system: M14 melanoma
# [27] = system: M19-MEL melanoma
# [28] = system: MALME-3M melanoma
# [29] = system: MCF7 breast
# [30] = system: MOLT-4 leukemia
# [31] = system: NCI-H226 lung
# [32] = system: NCI-H23 lung
# [33] = system: NCI-H460 lung
# [34] = system: NCI-H522 lung
# [35] = system: NCI/ADR-RES ovarian
# [36] = system: OVCAR-3 ovarian
# [37] = system: OVCAR-4 ovarian
# [38] = system: OVCAR-5 ovarian
# [39] = system: OVCAR-8 ovarian
# [40] = system: P388 leukemia
# [41] = system: P388/ADR leukemia
# [42] = system: RPMI-8226 leukemia
# [43] = system: RXF 393 renal
# [44] = system: SF-268 CNS
# [45] = system: SF-295 CNS
# [46] = system: SF-539 CNS
# [47] = system: SK-MEL-2 melanoma
# [48] = system: SK-MEL-28 melanoma
# [49] = system: SK-MEL-5 melanoma
# [50] = system: SK-OV-3 ovarian
# [51] = system: SN12C renal
# [52] = system: SN12K1 renal
# [53] = system: SNB-19 CNS
# [54] = system: SNB-75 CNS
# [55] = system: SNB-78 CNS
# [56] = system: SR leukemia
# [57] = system: SW-620 colon
# [58] = system: TK-10 renal
# [59] = system: U251 CNS
# [60] = system: UACC-257 melanoma
# [61] = system: UACC-62 melanoma
# [62] = system: UO-31 renal
# [63] = system: XF 498 CNS
# [64] = system: RXF-631 renal
smiles,measurement,setting,value
O=NN(CCCl)C(=O)NC1CCC(CC(=O)O)CC1 (stereo not given),TGI,[1],> 100 µM
same,TGI,[2],> 100 µM
same,TGI,[3],> 100 µM
same,TGI,[4],> 100 µM
same,TGI,[5],> 100 µM
same,TGI,[6],> 100 µM and 62.2 µM
same,TGI,[7],> 100 µM
same,TGI,[8],> 100 µM
same,TGI,[9],> 100 µM
same,TGI,[10],> 100 µM
same,TGI,[11],> 100 µM
same,TGI,[12],> 100 µM
same,TGI,[13],> 100 µM
same,TGI,[14],> 100 µM
same,TGI,[15],> 100 µM
same,TGI,[16],> 100 µM
same,TGI,[17],> 100 µM
same,TGI,[18],> 100 µM
same,TGI,[19],> 100 µM
same,TGI,[20],> 100 µM
same,TGI,[21],> 100 µM
same,TGI,[22],> 100 µM
same,TGI,[23],> 100 µM
same,TGI,[24],> 100 µM
same,TGI,[25],> 100 µM
same,TGI,[26],> 100 µM
same,TGI,[27],> 100 µM
same,TGI,[28],> 100 µM
same,TGI,[29],> 100 µM
same,TGI,[30],> 100 µM and 63.2 µM
same,TGI,[31],> 100 µM
same,TGI,[32],> 100 µM
same,TGI,[33],> 100 µM
same,TGI,[34],> 100 µM
same,TGI,[35],> 100 µM
same,TGI,[36],> 100 µM
same,TGI,[37],> 100 µM
same,TGI,[38],> 100 µM
same,TGI,[39],> 100 µM
same,TGI,[40],> 62.3 µM and 16.7 µM
same,TGI,[41],> 100 µM and 13.7 µM
same,TGI,[42],> 100 µM
same,TGI,[43],> 100 µM
same,TGI,[44],> 100 µM
same,TGI,[45],> 100 µM
same,TGI,[46],> 100 µM
same,TGI,[47],> 100 µM
same,TGI,[48],> 100 µM
same,TGI,[49],> 100 µM
same,TGI,[50],> 100 µM
same,TGI,[51],> 100 µM
same,TGI,[52],> 100 µM
same,TGI,[53],> 100 µM
same,TGI,[54],> 100 µM
same,TGI,[55],> 100 µM
same,TGI,[56],> 100 µM
same,TGI,[57],> 100 µM
same,TGI,[58],> 100 µM
same,TGI,[59],> 100 µM
same,TGI,[60],> 100 µM
same,TGI,[61],> 100 µM
same,TGI,[62],> 100 µM
same,TGI,[63],> 100 µM
O=C(c1ccccc1)[C@H]1Nc2ccc(Cl)cc2[C@H]2CCC[C@@H]12,TGI,[1],> 100 µM
same,TGI,[3],> 100 µM
same,TGI,[4],57.9 µM
same,TGI,[5],> 100 µM
same,TGI,[7],91.7 µM
same,TGI,[8],> 100 µM
same,TGI,[9],> 100 µM
same,TGI,[10],> 100 µM
same,TGI,[12],> 100 µM
same,TGI,[13],41.5 µM
same,TGI,[14],98.3 µM
same,TGI,[16],59.6 µM
same,TGI,[17],> 100 µM
same,TGI,[19],62.2 µM
same,TGI,[20],> 100 µM
same,TGI,[21],64.5 µM
same,TGI,[22],> 100 µM
same,TGI,[23],> 100 µM
same,TGI,[24],19.9 µM
same,TGI,[25],64.9 µM
same,TGI,[26],29.2 µM
same,TGI,[27],> 100 µM
same,TGI,[28],51.3 µM
same,TGI,[30],86.8 µM
same,TGI,[31],63.3 µM
same,TGI,[32],78 µM
same,TGI,[33],88 µM
same,TGI,[34],59.9 µM
same,TGI,[36],68.6 µM
same,TGI,[37],75.9 µM
same,TGI,[38],> 100 µM
same,TGI,[39],> 100 µM
same,TGI,[42],57.1 µM
same,TGI,[43],82.6 µM
same,TGI,[64],> 100 µM
same,TGI,[44],> 100 µM
same,TGI,[45],> 100 µM
same,TGI,[46],> 100 µM
same,TGI,[47],49.5 µM
same,TGI,[48],92.6 µM
same,TGI,[49],23 µM
same,TGI,[51],92.5 µM
same,TGI,[53],> 100 µM
same,TGI,[54],> 100 µM
same,TGI,[55],> 100 µM
same,TGI,[56],> 100 µM
same,TGI,[57],> 100 µM
same,TGI,[58],> 100 µM
same,TGI,[59],> 100 µM
same,TGI,[61],> 100 µM
same,TGI,[62],> 100 µM
same,TGI,[63],54.2 µM
Cc1nc2ccccc2c(=O)n1/N=C(\N=Nc1ccccc1Cl)c1ccccc1Cl,TGI,[1],> 100 µM
same,TGI,[2],> 100 µM
same,TGI,[3],> 100 µM
same,TGI,[4],> 100 µM
same,TGI,[5],63.4 µM
same,TGI,[6],> 100 µM
same,TGI,[7],> 100 µM
same,TGI,[8],> 100 µM
same,TGI,[9],> 100 µM
same,TGI,[10],> 100 µM
same,TGI,[11],> 100 µM
same,TGI,[13],> 100 µM
same,TGI,[14],> 100 µM
same,TGI,[15],> 100 µM
same,TGI,[16],> 100 µM
same,TGI,[17],> 100 µM
same,TGI,[18],43.7 µM
same,TGI,[19],> 100 µM
same,TGI,[20],> 100 µM
same,TGI,[21],> 100 µM
same,TGI,[23],> 100 µM
same,TGI,[24],> 100 µM
same,TGI,[25],> 100 µM
same,TGI,[26],> 100 µM
same,TGI,[27],> 100 µM
same,TGI,[30],> 100 µM
same,TGI,[32],> 100 µM
same,TGI,[33],> 100 µM
same,TGI,[34],98.4 µM
same,TGI,[39],> 100 µM
same,TGI,[42],> 100 µM
same,TGI,[43],40.5 µM
same,TGI,[64],> 100 µM
same,TGI,[44],> 100 µM
same,TGI,[46],> 100 µM
same,TGI,[48],> 100 µM
same,TGI,[49],> 100 µM
same,TGI,[50],64.4 µM
same,TGI,[51],> 100 µM
same,TGI,[57],> 100 µM
same,TGI,[58],> 100 µM
same,TGI,[59],> 100 µM
same,TGI,[61],> 100 µM
same,TGI,[62],> 100 µM
same,TGI,[63],26.8 µM
